Measurements taken from patent publication US6737383B1, “Herbicidal oxadiazolidines” (priority 1999, dated 2004).

How the values were obtained:
surinam grass = experiment: Test B pre/postemergence surinam grass; type: in vivo, Brachiaria decumbens
Procedure, shortened: (§1)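 Herbicidal effect was estimated by eye on a ten-point control scale after plants spent twelve to sixteen days in a greenhouse following soil or foliar treatment. Foliar sprays targeted plants at one to four leaves; all doses were formulated in a non-phytotoxic solvent with surfactant.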

rice = experiment: Test B flood test rice; type: in vivo, Oryza sativa
Procedure, shortened: (§2)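 Read-out is a visual response score from 0 (no effect) to 10 (complete control), assigned by comparison with untreated controls. Treatment was applied at the 2-leaf stage, and plants stayed in the greenhouse for twelve to sixteen days before scoring.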

smallflower flatsedge = experiment: Test B flood test smallflower flatsedge; type: in vivo, Cyperus difformis
Procedure, shortened: as §2

duck salad = experiment: Test B flood test duck salad; type: in vivo, Heteranthera limosa
Procedure, shortened: as §2

soybean = experiment: Test B pre/postemergence soybean; type: in vivo, Glycine max
Procedure, shortened: as §1

pigweed = experiment: Test B pre/postemergence pigweed; type: in vivo, Amaranthus retroflexus
Procedure, shortened: as §1

rape = experiment: Test B pre/postemergence rape; type: in vivo, Brassica napus
Procedure, shortened: as §1

wheat = experiment: Test B pre/postemergence wheat; type: in vivo, Triticum aestivum
Procedure, shortened: as §1

cocklebur = experiment: Test B pre/postemergence cocklebur; type: in vivo, Xanthium strumarium
Procedure, shortened: as §1

sugar beet = experiment: Test B pre/postemergence sugar beet; type: in vivo, Beta vulgaris
Procedure, shortened: as §1

corn = experiment: Test B pre/postemergence corn; type: in vivo, Zea mays
Procedure, shortened: as §1

velvetleaf = experiment: Test B pre/postemergence velvetleaf; type: in vivo, Abutilon theophrasti
Procedure, shortened: as §1

purple nutsedge = experiment: Test B pre/postemergence purple nutsedge; type: in vivo, Cyperus rotundus
Procedure, shortened: as §1

wild oat = experiment: Test B pre/postemergence wild oat; type: in vivo, Avena fatua
Procedure, shortened: as §1

giant foxtail = experiment: Test B pre/postemergence giant foxtail; type: in vivo, Setaria faberii
Procedure, shortened: as §1

[1] = Postemergence, Rate 500 g/ha, scale of 0 to 10 where 0 is no effect and 10 is complete control
[2] = Preemergence, Rate 62 g/ha, scale of 0 to 10 where 0 is no effect and 10 is complete control
[3] = Preemergence, Rate 125 g/ha, scale of 0 to 10 where 0 is no effect and 10 is complete control
[4] = Preemergence, Rate 250 g/ha, scale 0 to 10, 0 is no effect, 10 is complete control
[5] = Preemergence, Rate 500 g/ha, scale 0 to 10, 0 is no effect, 10 is complete control
[6] = Rate 62 g/ha, Postemergence, scale 0 to 10 (0 no effect, 10 complete control)
[7] = Rate 125 g/ha, Postemergence, scale 0 to 10, 0 is no effect, 10 is complete control
[8] = Rate 62 g/ha, flood test species, Pre-emergence, visual evaluation after twelve to sixteen days
[9] = Rate 125 g/ha, under heading Pre-emergence, flood test species, visual evaluation after twelve to sixteen days
[10] = Rate 250 g/ha, Pre-emergence (flood test species), scale 0 to 10, 0 is no effect, 10 is complete control
[11] = Rate 500 g/ha, Pre-emergence, flood test species, scale 0 to 10 (0 no effect, 10 complete control)
[12] = Postemergence, Rate 250 g/ha, scale 0 to 10

CC(C)N(C(=O)n1oc(=O)n(CNC(=O)c2ccccc2)c1=O)c1ccc(F)cc1 [Compound 445]
B. signalgrass plant response rating (surinam grass; Postemergence, Rate 250 g/ha, scale 0 to 10, 0 no effect, 10 complete control): 0
B. signalgrass plant response rating (surinam grass; [1]): 0
Plant response rating, B. signalgrass (surinam grass; [2]): 0
Plant response rating, B. signalgrass (surinam grass; [3]): 0
B. signalgrass plant response rating (surinam grass; [4]): 2
B. signalgrass plant response rating (surinam grass; [5]): 3
B. signalgrass plant response rating (surinam grass; [6]): 0
B. signalgrass plant response rating (surinam grass; [7]): 0
Plant response rating, Rice (0 to 10 scale, 0 is no effect, 10 is complete control) (rice; [8]): 0
Rice plant response rating (0 to 10 scale, 0 is no effect, 10 is complete control) (rice; [9]): 0
Rice plant response rating (rice; [10]): 0
Rice plant response rating (rice; [11]): 0
Plant response rating, S. Flatsedge (0 to 10 scale, 0 is no effect, 10 is complete control) (smallflower flatsedge; [8]): 0
S. Flatsedge plant response rating (0 to 10 scale, 0 is no effect, 10 is complete control) (smallflower flatsedge; [9]): 0
S. Flatsedge plant response rating (smallflower flatsedge; [10]): 0
S. Flatsedge plant response rating (smallflower flatsedge; [11]): 0
Plant response rating, Ducksalad (0 to 10 scale, 0 is no effect, 10 is complete control) (duck salad; [8]): 0
Ducksalad plant response rating (0 to 10 scale, 0 is no effect, 10 is complete control) (duck salad; [9]): 0
Ducksalad plant response rating (duck salad; [10]): 0
Ducksalad plant response rating (duck salad; [11]): 0
Soybean plant response rating (soybean; [12]): 1
Soybean plant response rating (soybean; [1]): 2
Plant response rating, Soybean (soybean; [2]): 0
Plant response rating, Soybean (soybean; [3]): 0
Soybean plant response rating (soybean; [5]): 0
Soybean plant response rating (soybean; [6]): 1
Soybean plant response rating (soybean; [7]): 1
Redroot pigweed plant response rating (pigweed; [1]): 4
Plant response rating, Redroot pigweed (pigweed; [2]): 0
Plant response rating, Redroot pigweed (pigweed; [3]): 2
Redroot pigweed plant response rating (pigweed; [4]): 4
Redroot pigweed plant response rating (pigweed; [5]): 10
Redroot pigweed plant response rating (pigweed; [6]): 0
Redroot pigweed plant response rating (pigweed; [7]): 0
Rape plant response rating (rape; [12]): 2
Rape plant response rating (rape; [1]): 2
Plant response rating, Rape (rape; [2]): 0
Plant response rating, Rape (rape; [3]): 0
Rape plant response rating (rape; [4]): 0
Rape plant response rating (rape; [5]): 2
Rape plant response rating (rape; [6]): 0
Rape plant response rating (rape; [7]): 0
Wheat plant response rating (wheat; [12]): 0
Wheat plant response rating (wheat; [1]): 0
Plant response rating, Wheat (wheat; [2]): 0
Plant response rating, Wheat (wheat; [3]): 0
Wheat plant response rating (wheat; [4]): 0
Wheat plant response rating (wheat; [5]): 0
Wheat plant response rating (wheat; [6]): 0
Wheat plant response rating (wheat; [7]): 0
Cocklebur plant response rating (cocklebur; [12]): 2
Cocklebur plant response rating (cocklebur; [1]): 2
Plant response rating, Cocklebur (cocklebur; [2]): 0
Plant response rating, Cocklebur (cocklebur; [3]): 0
Cocklebur plant response rating (cocklebur; [4]): 0
Cocklebur plant response rating (cocklebur; [6]): 0
Cocklebur plant response rating (cocklebur; [7]): 2
Sugarbeets plant response rating (sugar beet; [12]): 0
Sugarbeets plant response rating (sugar beet; [1]): 0
Plant response rating, Sugarbeets (sugar beet; [2]): 0
Plant response rating, Sugarbeets (sugar beet; [3]): 0
Sugarbeets plant response rating (sugar beet; [4]): 0
Sugarbeets plant response rating (sugar beet; [5]): 0
Sugarbeets plant response rating (sugar beet; [6]): 0
Sugarbeets plant response rating (sugar beet; [7]): 0
Corn plant response rating (corn; [12]): 0
Corn plant response rating (corn; [1]): 0
Plant response rating, Corn (corn; [2]): 0
Plant response rating, Corn (corn; [3]): 0
Corn plant response rating (corn; [4]): 0
Corn plant response rating (corn; [5]): 0
Corn plant response rating (corn; [6]): 0
Corn plant response rating (corn; [7]): 0
Velvetleaf plant response rating (velvetleaf; [12]): 3
Velvetleaf plant response rating (velvetleaf; [1]): 5
Plant response rating, Velvetleaf (velvetleaf; [2]): 0
Plant response rating, Velvetleaf (velvetleaf; [3]): 0
Velvetleaf plant response rating (velvetleaf; [4]): 2
Velvetleaf plant response rating (velvetleaf; [5]): 3
Velvetleaf plant response rating (velvetleaf; [6]): 0
Velvetleaf plant response rating (velvetleaf; [7]): 2
Nutsedge plant response rating (purple nutsedge; [12]): 0
Nutsedge plant response rating (purple nutsedge; [1]): 0
Plant response rating, Nutsedge (purple nutsedge; [2]): 0
Plant response rating, Nutsedge (purple nutsedge; [3]): 0
Nutsedge plant response rating (purple nutsedge; [4]): 0
Nutsedge plant response rating (purple nutsedge; [5]): 0
Nutsedge plant response rating (purple nutsedge; [6]): 0
Nutsedge plant response rating (purple nutsedge; [7]): 0
Wild oats plant response rating (wild oat; [12]): 0
Wild oats plant response rating (wild oat; [1]): 0
Plant response rating, Wild oats (wild oat; [2]): 0
Plant response rating, Wild oats (wild oat; [3]): 0
Wild oats plant response rating (wild oat; [4]): 0
Wild oats plant response rating (wild oat; [5]): 0
Wild oats plant response rating (wild oat; [6]): 0
Wild oats plant response rating (wild oat; [7]): 0
Giant foxtail plant response rating (giant foxtail; [12]): 1
Giant foxtail plant response rating (giant foxtail; [1]): 2
Plant response rating, Giant foxtail (giant foxtail; [2]): 0
Plant response rating, Giant foxtail (giant foxtail; [3]): 0
Giant foxtail plant response rating (giant foxtail; [4]): 5
Giant foxtail plant response rating (giant foxtail; [5]): 9
Giant foxtail plant response rating (giant foxtail; [6]): 0
Giant foxtail plant response rating (giant foxtail; [7]): 0
